One data set relates to Snail transgenic mice. Kind of data set: Scleroderma model in Snail transgenic mice. In kind it is in vivo, mouse. As for the experimental part:
UAS03 attenuates Scleroderma associated vascular permeability in Snail transgenic mice. Calorimetric quantification of Evan's blue dye extracted from back skin using UV spectrophotometer. […] Animals treated with UAS03 show more than 3-fold reduction in the dye leakage (FIG. 24).
Expression for fibrosis associated genes in the back skin of the Snail transgenic mice. The mRNA levels of the Collagen 1 were measured in back skin using RT-qPCR. […] The expression in UAS03 treated group, in both males and females, were reduced. The levels were separately assessed in males and females in vehicle and drug treated animals (FIG. 25).

A further data set concerns T84 cells. Kind of data set: EtOH-induced internalization of junction proteins. In kind it is cell-based. The note with it: 50 μM 1 h, then EtOH 40 mM 6 h. An excerpt:
The membrane and cytosolic fractions were isolated and evaluated for tight junction (TJ) and adherins junction (AJ) and desmosomes. […] (i.e., EtOH treatment alone has more cytosolic protein and EtOH+UroA has more membrane fraction) (FIG. 20).

The target in the next data set is P-glycoprotein (P-gp) (Homo sapiens, UniProt P08183). An excerpt:
(§1) Therefore, blocking its activity and/or downregulating the expression of BCRP, P-gp could reverse the effect and sensitize the cancer cells.

For another data set, the system named is AhR^−/− mice. As to the kind of experiment: Acute ALD model in AhR^−/− mice. Type of data set: in vivo, mouse. The note with it: 20 mg/kg at 2, 14 and 26 h. As to the method:
FIG. 19: UroA treatment failed in AhR^−/− mice to protect against binge EtOH-induced ALD. C547BL/6 and AhR^−/− mice (n=4/group) were oral gavaged with alcohol (2.5 g/kg) at 0, 12 and 24 h. Mice were treated with Veh (0.25% CMC) or UroA (20 mg/kg) at 2, 14 and 26 h. Mice were euthanized at 32 h. The Fecal albumin was measured using standard ELISA. Serum endotoxin, TNF-α, ALT as well as liver ALT and TG levels using ELISA methods. Error bars, ±SEM. Statistics were performed using 2way ANOVA multiple comparisons. * p<0.05, ** p<0.01, *** p<0.001.
AhR has a role for UroA mediated protection in ALD model: To address the role of AhR expression for UroA mediated activities, we performed acute ALD models in C57BL/6J mice and AhR^−/− mice. In this experiment, mice (WT, AhR^−/− mice (n=4/group)) were treated with half the dose of EtOH (2.5 g/kg) at 0, 12 and 24 h followed by oral treatment Veh (0.25% CMC) or UroA (20 mg/kg) at 2, 14 and 26 h.

In the next data set the test system is C57BL/6 mice. As to the kind of experiment: Acute (binge) alcohol ALD model. Type of data set: in vivo, mouse. As to the method:
FIG. 15: UroA treatment reduces binge EtOH-induced ALD. (A) Acute alcohol model: Female wild type (C547BL/6) mice (n=6/group) were oral gavaged with alcohol (5 g/kg) at 0, 12 and 24 h. Mice were treated with Veh (0.25% CMC) or UroA (20 mg/kg) at 2, 14 and 26 h. Mice were euthanized at 32 h. (B) In vivo permeability was measured by determining serum levels of FITC-Dextran post 4 h oral gavage of FITC-dextran (C) Fecal albumin was measured using standard ELISA. (D-I) Indicated serum cytokines/markers levels were measured in serum using standard ELISA. (J) The levels of triglycerides (TGs) in liver were measured using ELISA methods. Error bars, ±SEM. Statistics were performed using 2 way ANOVA multiple comparisons. * p<0.05, ** p<0.01, *** p<0.001.
Treatment with UroA mitigates acute and chronic alcohol liver disease. To examine therapeutic efficacies of UroA in ALD, we adopted acute mouse model as developed by Gao B group (NIAAA) (BERTOLA et al., (2013) “Mouse model of chronic and binge ethanol feeding (the NIAAA model)” Nat Protoc. Vol. 8, No. 3, pp. 627-637). We tested therapeutic efficacies of UroA in this model.

Data set [1] deals with T1, breast cancer resistance protein (BCRP) (Homo sapiens, UniProt Q9UNQ0).
T1 construct: endogenous in cells
As to the kind of experiment: BCRP drug efflux activity. Type of data set: cell-based. The note with it: colon cancer cell lines.
From the text: as §1

Data set [2] deals with colon cancer cell line (SW480). The note with it: human.
The subject of the next data set is colon cancer cells. As to the kind of experiment: Clonogenic and wound healing assays. Type of data set: cell-based.
The subject of the next data set is human primary monocytes. As to the kind of experiment: LPS and EtOH induced TNF-α in human primary monocytes. Type of data set: cell-based. The note with it: EtOH 25 mM 7 days; LPS 50 ng/ml. As for the experimental part: FIG. 11: UroA reduces the LPS and EtOH induced TNF-α in human primary monocytes. (A) Human primary monocytes treated with UroA and LPS (50 ng/ml) for 6 h. The TNF-α in supernatant was measured. (B) Human primary monocytes were exposed to EtOH (25 mM) for 7 days. LPS (50 ng/ml) and UroA were added at day 6 and incubated for 24 h. The TNF-α levels in supernatant were measured using standard ELISA methods. Statistics performed using unpaired t-test using Graphpad Prism software. Error bars, ±SEM; ***p<0.001; **p<0.01
UroA reduces the LPS and EtOH induced TNF-α in human primary monocytes. Peripheral blood monocytes from chronic alcoholism patients produce increased spontaneous inflammatory mediators such as TNF-α, IL-6, IL-10 and IL-12. To mimic this condition, healthy peripheral blood monocytes were exposed for one week and tested whether UroA/UAS03 reduce the LPS-induced TNF-α.

The record followed here is patent US12377069B2, “Compounds, compositions, methods of using, and methods for preparing compounds” (UNIVERSITY OF LOUISVILLE RESEARCH FOUNDATION, INC., priority 2018, dated 2025).

Structures are written as SMILES. “Also recorded” adds a separate entry of the source.

Chain of P-glycoprotein (P-gp) (P08183 whole entry): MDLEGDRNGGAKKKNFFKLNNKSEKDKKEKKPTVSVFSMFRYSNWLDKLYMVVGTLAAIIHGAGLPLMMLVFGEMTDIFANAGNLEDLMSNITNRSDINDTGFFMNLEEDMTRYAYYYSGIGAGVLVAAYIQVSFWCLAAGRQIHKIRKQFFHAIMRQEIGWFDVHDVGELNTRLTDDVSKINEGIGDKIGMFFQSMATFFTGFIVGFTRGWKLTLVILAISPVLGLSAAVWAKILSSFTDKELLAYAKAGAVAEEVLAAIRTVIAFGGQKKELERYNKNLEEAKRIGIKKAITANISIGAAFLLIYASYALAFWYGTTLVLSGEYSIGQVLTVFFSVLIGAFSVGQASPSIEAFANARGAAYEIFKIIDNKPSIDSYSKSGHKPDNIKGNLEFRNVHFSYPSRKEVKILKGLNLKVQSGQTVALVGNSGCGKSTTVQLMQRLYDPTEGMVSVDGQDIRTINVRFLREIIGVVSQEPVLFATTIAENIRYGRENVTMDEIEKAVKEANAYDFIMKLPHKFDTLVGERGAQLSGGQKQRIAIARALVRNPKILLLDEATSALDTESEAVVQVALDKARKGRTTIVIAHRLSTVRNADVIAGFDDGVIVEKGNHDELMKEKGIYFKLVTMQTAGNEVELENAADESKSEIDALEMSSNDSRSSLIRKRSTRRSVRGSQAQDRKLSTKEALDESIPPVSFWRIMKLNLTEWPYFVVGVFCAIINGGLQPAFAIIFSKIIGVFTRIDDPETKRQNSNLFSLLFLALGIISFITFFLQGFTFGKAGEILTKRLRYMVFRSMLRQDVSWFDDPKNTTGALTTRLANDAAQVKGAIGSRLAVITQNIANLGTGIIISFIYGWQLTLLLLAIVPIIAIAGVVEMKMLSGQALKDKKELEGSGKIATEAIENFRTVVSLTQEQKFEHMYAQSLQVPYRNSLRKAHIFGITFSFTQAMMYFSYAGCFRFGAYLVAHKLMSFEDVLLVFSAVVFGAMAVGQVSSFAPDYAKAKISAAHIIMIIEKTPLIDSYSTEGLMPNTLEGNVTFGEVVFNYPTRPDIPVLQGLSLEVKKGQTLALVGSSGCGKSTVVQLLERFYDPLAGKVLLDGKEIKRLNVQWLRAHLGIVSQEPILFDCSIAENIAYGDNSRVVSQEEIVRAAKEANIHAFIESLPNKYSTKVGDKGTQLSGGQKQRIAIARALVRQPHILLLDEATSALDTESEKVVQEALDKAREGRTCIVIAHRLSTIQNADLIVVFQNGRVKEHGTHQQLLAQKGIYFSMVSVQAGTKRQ
T1 sequence (Q9UNQ0 whole entry): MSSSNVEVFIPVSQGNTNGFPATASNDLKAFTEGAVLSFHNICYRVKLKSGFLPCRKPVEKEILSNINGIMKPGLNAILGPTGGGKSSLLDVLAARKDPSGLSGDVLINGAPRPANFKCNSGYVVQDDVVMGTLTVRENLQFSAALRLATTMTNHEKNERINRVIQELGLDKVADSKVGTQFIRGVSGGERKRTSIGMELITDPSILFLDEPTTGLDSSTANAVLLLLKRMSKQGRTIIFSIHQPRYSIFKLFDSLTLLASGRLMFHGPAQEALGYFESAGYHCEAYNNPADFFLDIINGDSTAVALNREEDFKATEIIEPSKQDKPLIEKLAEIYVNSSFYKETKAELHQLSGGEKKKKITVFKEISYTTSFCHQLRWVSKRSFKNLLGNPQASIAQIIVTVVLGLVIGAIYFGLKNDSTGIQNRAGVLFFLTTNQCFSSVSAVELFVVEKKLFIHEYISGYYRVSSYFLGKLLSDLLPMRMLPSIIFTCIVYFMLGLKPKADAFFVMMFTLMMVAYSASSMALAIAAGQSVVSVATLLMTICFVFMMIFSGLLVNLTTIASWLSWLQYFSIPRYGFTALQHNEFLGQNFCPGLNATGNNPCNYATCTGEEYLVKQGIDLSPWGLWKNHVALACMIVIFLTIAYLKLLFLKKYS

For the compound `Oc1ccc2c(c1)COc1cc(O)ccc1-2` [UAS03, 6H-benzo[c]chromene-3,8-diol], in the data set with Snail transgenic mice (Snail transgenic mice), the “reduction in Evan's blue dye leakage in back skin” value is on record as “more than 3 fold”. Besides, the “Collagen 1 mRNA expression in back skin” value in the data set on Snail transgenic mice (males and females, RT-qPCR) is given as “reduced”.
As for `O=c1oc2cc(O)ccc2c2ccc(O)cc12` [UroA, 3,8-dihydroxy-6H-dibenzo[b,d]pyran-6-one], the “EtOH-induced internalization of membrane junction proteins to cytosol” value in the data set on T84 cells is listed as “protected from EtOH-induced internalization”. Further, the “drug efflux activity of P-glycoprotein (P-gp)” value on P-glycoprotein (P-gp) is on record as “decreased drug efflux activities”. Further, on P-glycoprotein (P-gp) (50 μM), the “efflux of Rh123” value is on record as “blocked efflux of Rh123”. For the same compound, the “TG levels in AhR^−/− mice” value with AhR^−/− mice is on record as “down regulated TG levels”. For the same compound, the “EtOH-induced gut leakage, serum endotoxins, TNF-α, ALT, liver ALT in AhR^−/− mice” value in the data set on AhR^−/− mice (EtOH 2.5 g/kg) was “did not appear to rescue”. The “TJ protein (ZO-1) disruption at intestines” value in the data set on C57BL/6 mice (20 mg/kg) is “protects against TJ protein (ZO-1) disruption”. Also, in the data set on C57BL/6 mice (20 mg/kg at 2, 14 and 26 h), the “TG accumulation in liver” value was “reduced TG accumulation in liver”; the “circulating serum ALT, AST levels” value was “reduced”; the “systemic inflammation (serum IL-6, TNF-α, IL-1β, endotoxins)” value is “reduced”. In data set [1], the “BCRP drug efflux activity” value was “decreased drug efflux activities; also recorded: reduced the BCRP activity”. Also, in [2], the “cell viability in combination with 5FU” value was found to be 69%. Moreover, the “colon cancer cell colony formation (clonogenic assay)” value in the data set on colon cancer cells is given as “reduced”. Also, in the data set with colon cancer cells (in combination with 5FU), the “cell growth and migration into scratch (wound healing assay)” value was “inhibited cell growth and migration”. Further, in the data set with human primary monocytes, the “LPS-induced TNF-α in chronically EtOH exposed human monocytes” value was “reduced”.
